# Data as given in patent publication US10494356B2, “Compound promoting osteoblast differentiation and inhibiting adipocyte differentiation, preparation method thereof and application thereof” (SUNG KYUN BIOTECH CO., LTD., priority 2016, dated 2019).
# Key:
# Assay type in all cases: cell-based, mouse
# C3H10T1/2 cells [1] = assay: Fat production during differentiation of C3H10T1/2 cells into adipocytes (Oil Red O staining); details: for effect of inhibiting adipocyte differentiation: Test Example 3: NK11 at 1 μM, other compounds at 5 μM, vs negative control group (DMSO)
# Method: After plating the cells on a 6-well plate in the same manner as in Test Example 1, they were cultured for 9 days in a medium containing 1 μM dexamethasone, 5 μg/mL insulin and 1 μM troglitazone for adipocyte differentiation after adding the NK11 compound at 0.1, 0.5, 1 and 5 μM. After completion of differentiation, the medium was removed and the cells were fixed with 10% neutral buffered formalin and stained with 0.5% Oil Red O solution.
# Then, the Lab color space was measured using the image files of the Oil Red O-stained well plate.
# [2] = tested on: ALP mRNA in C3H10T1/2 cells; assay: mRNA expression of osteoblast differentiation factor ALP (real-time PCR); details: for expression level of ALP, osteogenesis marker (mRNA): Test Example 3: NK11 at 1 μM, other compounds at 5 μM
# Source text: (§1) The mRNA expression levels of the osteoblast differentiation factor and the adipocyte differentiation factor in the cells treated with the NK11 compound were investigated.
# (§2) First, the expression level of the osteoblast differentiation factor ALP was investigated while differentiating the C3H10T1/2 cells into osteoblasts in the same manner as in […]. Also, the expression levels of the adipocyte differentiation factors PPARγ, aP2 and CD36 compound were investigated while differentiating the C3H10T1/2 cells into adipocytes in the same manner as in Test Example 1.
# (§3) Total RNA was extracted using TRIzol (Invitrogen). 1 μg of the isolated RNA was synthesized into cDNA by adding random primers, dNTP and PrimeScript™ reverse transcriptase (Takara). The synthesized cDNA was subjected to real-time PCR using primers and SYBR Premix Ex Taq (Takara).
# [3] = tested on: PPARγ, aP2 and CD36 mRNAs in C3H10T1/2 cells; assay: mRNA expression of adipocyte differentiation factors PPARγ, aP2 and CD36 (real-time PCR)
# Source text: as §1, §2, §3
# C3H10T1/2 cells [4] = assay: ALP (alkaline phosphatase) production during differentiation of C3H10T1/2 cells into osteoblasts (ALP staining, -b value)
# Method: The C3H10T1/2 cells derived from mouse embryo fibroblasts are pluripotent stem cells that can differentiate into various cell lineages including osteoblasts. Because one of the characteristics of osteoblasts is the ALP (alkaline phosphatase) activity, the differentiation of the C3H10T1/2 cells into osteoblasts was measured based on the ALP activity.
# The C3H10T1/2 cells were cultured with a DMEM medium supplemented with 10% FBS and 1% penicillin/streptomycin under the condition of 37° C. and 5% CO2. The C3H10T1/2 cells were cultured on a 6-well plate at a concentration of 2.5×10^4/mL with a medium containing 10 mM β-glycerophosphate and 50 μg/mL ascorbic acid for osteocyte differentiation. The differentiation was performed for 9 days after adding the NK11 compound at 0.1, 0.5, 1 and 5 μM, while replacing the medium with 3-day intervals. Then, ALP staining was performed using 5-bromo-4-chloro-3-indolyl phosphate/nitro blue tetrazolium (BCIP/NBT).
# Then, the Lab color space was measured using the image files of the ALP-stained well plate.
# [5] = Test Example 3: NK11 at 1 μM, other compounds at 5 μM
# [6] = Test Example 3: NK11 at 1 μM, other compounds at 5 μM, vs negative control group (DMSO)
# [7] = 0.1, 0.5, 1 and 5 μM, 9 days differentiation, compared to DMSO-treated negative control
Compound,effect of inhibiting adipocyte differentiation (C3H10T1/2 cells [1]),"expression level of ALP, osteogenesis marker (mRNA) [2]","expression levels of the adipocyte-related genes CD36, aP2 and PPARγ [3, 5]",ALP production (C3H10T1/2 cells [4]; [6]),fat production by adipocytes (Oil Red O) (C3H10T1/2 cells [1]; [7]),"expression of ALP, osteogenesis marker (mRNA) ([2]; at the concentration of 5 μM)","expression levels of the adipocyte-related genes CD36, aP2 and PPARγ ([3]; 0.1, 0.5, 1 and 5 μM, mRNA, real-time PCR)",ALP production (C3H10T1/2 cells [4]; [7]),ALP production as compared to the NK11 compound (C3H10T1/2 cells [4]; Test Example 3: compound at 5 μM vs NK11 at 1 μM)
COCOc1c(OC)cc([C@@H]2O[C@@H](c3cc(OC)c(OCOC)c(OC)c3)[C@H](CO)[C@H]2CO)cc1OC [Chemical Formula 4],no difference in the effect of inhibiting adipocyte differentiation from the negative control group (DMSO),no effect,no effect,no difference in ALP production from the negative control group (DMSO),–,–,–,–,–
COc1cc([C@@H]2O[C@@H](c3cc(OC)c(O)c(OC)c3)[C@H](COC(C)=O)[C@H]2COC(C)=O)cc(OC)c1O [Chemical Formula 11],no difference in the effect of inhibiting adipocyte differentiation from the negative control group (DMSO),no effect,no effect,no difference in ALP production from the negative control group (DMSO),–,–,–,–,–
COc1cc([C@@H]2O[C@@H](c3cc(OC)c(O)c(OC)c3)[C@H](COC(=O)/C=C/c3ccc(O)cc3)[C@H]2COC(=O)/C=C\c2ccc(O)cc2)cc(OC)c1O [Chemical Formula 8],–,–,–,–,inhibited fat production by adipocytes in a concentration-dependent manner,expressed highly,"decreased the expression levels of the adipocyte-related genes CD36, aP2 and PPARγ in a concentration-dependent manner",increased ALP production in a concentration-dependent manner,–
COc1cc([C@@H]2O[C@@H](c3cc(OC)c(O)c(OC)c3)[C@H](CO)[C@H]2CO)cc(OC)c1O [Chemical Formula 10],no difference in the effect of inhibiting adipocyte differentiation from the negative control group (DMSO),no effect,no effect,no difference in ALP production from the negative control group (DMSO),–,–,–,–,–
COc1cc([C@@H]2O[C@@H](c3cc(OC)c(O)c(OC)c3)[C@H](COC(=O)/C=C/c3ccccc3)[C@H]2COC(=O)/C=C/c2ccccc2)cc(OC)c1O [Chemical Formula 9],showed the effect of inhibiting adipocyte differentiation as the NK11 compound,high,decreased,significant effect of promoting ALP production although slightly lower than that of NK11,–,–,–,–,about 2 times
COC(=O)[C@@H]1[C@@H](C(=O)OC)[C@H](c2cc(OC)c(O)c(OC)c2)O[C@H]1c1cc(OC)c(O)c(OC)c1 [Chemical Formula 2],no difference in the effect of inhibiting adipocyte differentiation from the negative control group (DMSO),no effect,no effect,no difference in ALP production from the negative control group (DMSO),–,–,–,–,–
